# Laboratory results as given in patent US11000033B2, “Ketone or oxime compound, and herbicide” (NISSAN CHEMICAL CORPORATION, priority 2014, dated 2021).
# Experiments:
# Format in all cases: in vivo
# Cyperus difformis = test: Test Example 3: herbicidal effect by foliage application, Wagner pot (symbol E); conditions: application herbicide amount 320 g/ha; for E herbicidal effect grade: Table 24
# How it was run: (§1)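 In a shallow-flooded alluvial soil system held at 25–30 °C, plants including rice grew for 14 days and were then sprayed over the foliage with emulsion diluted to a fixed herbicide amount. Visual rating followed at 3 weeks.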
# wheat [1] = test: Test Example 5: effect on crop by foliage application, plastic box (symbol e); conditions: 320 g/ha, 3 weeks after application
# How it was run: (§2)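 Foliage-application test plants come from spot sowing in sterilized diluvial soil under a soil layer of about 1.5 cm, grown at 25° C. to 30° C. in a greenhouse.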
# rapeseed = test: Test Example 4: effect on crop by soil treatment (symbol g)
# Text: (§3) Herbicidal Effect Test by Soil Treatment
# (§4) Sterilized diluvial soil was placed in a plastic box having a length of 21 cm, a width of 13 cm, and a depth of 7 cm. Each of the seeds of Digitaria ciliaris, Setaria viridis, Echinochloa crus-galli var. crus-galli, Avena fatua, Alopecurus myosuroides, Lolium multiflorum Lam., Apera spica-venti, Abutilon theophrasti, Amaranthus retroflexus, Chenopodium album, Stellaria media, Galium spurium, Veronica persica, corn, soybean, rice, wheat, beet, and rapeseed was sowed in a spot-like manner and was covered with the soil of a thickness of about 1.5 cm. […] The plastic box was placed in a greenhouse of 25° C. to 30° C. to grow plant.
# Abutilon theophrasti = test: Test Example 5: herbicidal effect by foliage application, plastic box (symbol M); conditions: 320 g/ha, 3 weeks after application
# How it was run: (§5)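 Visual herbicidal score, taken three weeks post-application, of seedlings sprayed on the foliage with water-diluted emulsion at a predetermined amount; plants were 14 days old, greenhouse-raised at 25° C. to 30° C.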
# beet = test: Test Example 4: effect on crop by soil treatment (symbol f); conditions: for Effect on crop grade, f: beet: application herbicide amount 320 g/ha
# Text: as §3, §4
# Avena fatua = test: Test Example 5: herbicidal effect by foliage application, plastic box (symbol I); conditions: 320 g/ha, 3 weeks after application
# How it was run: as §5
# Monochoria vaginalis = test: Test Example 1: herbicidal activity, application before weed generation in submerged conditions (symbol C); conditions: application herbicide amount 320 g/ha
# How it was run: (§6)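 Compound emulsion was diluted to a set herbicide amount and applied to the water surface on the sowing day, into submerged (4 cm) alluvial-soil pots sown with mixed weed seeds and transplanted 2.5-leaf rice. Pots were held in a 25–30 °C greenhouse, and weeds were scored 0–5 by herbicidal ratio after 3 weeks.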
# Chenopodium album = test: Test Example 5: herbicidal effect by foliage application, plastic box (symbol O); conditions: 320 g/ha, 3 weeks after application
# How it was run: as §5
# Stellaria media = test: Test Example 5: herbicidal effect by foliage application, plastic box (symbol P); conditions: 320 g/ha, 3 weeks after application
# How it was run: as §5
# Lolium multiflorum Lam. = test: Test Example 4: herbicidal effect by soil treatment (symbol K)
# Text: as §3
# (§7) Sterilized diluvial soil was placed in a plastic box having a length of 21 cm, a width of 13 cm, and a depth of 7 cm. Each of the seeds of Digitaria ciliaris, Setaria viridis, Echinochloa crus-galli var. crus-galli, Avena fatua, Alopecurus myosuroides, Lolium multiflorum Lam., Apera spica-venti, Abutilon theophrasti, Amaranthus retroflexus, Chenopodium album, Stellaria media, Galium spurium, Veronica persica, corn, soybean, rice, wheat, beet, and rapeseed was sowed in a spot-like manner and was covered with the soil of a thickness of about 1.5 cm. Subsequently, the emulsion agent of the compound present invention prepared in accordance with Formulation Example 2 was diluted with water so as to be a predetermined herbicide amount and the diluted emulsion agent was uniformly applied to the surface of the soil with a small-size spray. The plastic box was placed in a greenhouse of 25° C. to 30° C. to grow plant. 3 weeks later from the herbicide application, the effect to each plant was investigated in accordance with the criteria of Test Example 1.
# wheat [2] = test: Test Example 4: effect on crop by soil treatment (symbol e)
# Text: as §3, §4
# Leptochloa chinensis = test: Test Example 3: herbicidal effect by foliage application, Wagner pot (symbol D); conditions: application herbicide amount 320 g/ha; for D (Leptochloa chinensis) herbicidal effect grade: Table 24
# How it was run: as §1
# Amaranthus retroflexus = test: Test Example 4: herbicidal effect by soil treatment (symbol N)
# Text: as §3, §7
# [3] = tested on: Echinochloa oryzacola Vasing.; test: Test Example 1: herbicidal activity, application before weed generation in submerged conditions (symbol A); conditions: application herbicide amount 320 g/ha
# How it was run: as §6
# Apera spica-venti = test: Test Example 5: herbicidal effect by foliage application, plastic box (symbol L); conditions: 320 g/ha, 3 weeks after application
# How it was run: as §5
# rice plant = test: Test Example 5: effect on crop by foliage application, plastic box (symbol b); conditions: 320 g/ha, 3 weeks after application
# How it was run: as §2
# rice = test: Test Example 4: effect on crop by soil treatment (symbol b)
# Text: as §3, §4
# [4] = application herbicide amount 320 g/ha
structure (smiles),measurement,setting,value
COCCON=C(C)CC1CC(O)=C(c2c(C)cc(-n3cc(Cl)cn3)cc2C)C1=O (stereo not drawn) [9-016],E herbicidal effect grade,Cyperus difformis,5 (Herbicidal ratio of 90% or more (almost completely withered))
same,"e: wheat, effect on crop grade",wheat [1],3 (Herbicidal ratio of 40% or higher and lower than 70%)
same,"Effect on crop grade, g: rapeseed",rapeseed; [4],0 (Herbicidal ratio of 5% or lower (almost no effect))
same,"M: Abutilon theophrasti, herbicidal effect grade",Abutilon theophrasti,0 (Herbicidal ratio of 5% or lower (almost no effect))
same,"Effect on crop grade, f: beet",beet,0 (Herbicidal ratio of 5% or lower (almost no effect))
same,"I: Avena fatua, herbicidal effect grade",Avena fatua,5 (Herbicidal ratio of 90% or more (almost completely withered))
same,C (Monochoria vaginalis) herbicidal effect grade,Monochoria vaginalis,2 (Herbicidal ratio of 20% or higher and lower than 40%)
same,"O: Chenopodium album, herbicidal effect grade",Chenopodium album,2 (Herbicidal ratio of 20% or higher and lower than 40%)
same,"P: Stellaria media, herbicidal effect grade",Stellaria media,3 (Herbicidal ratio of 40% or higher and lower than 70%)
same,"Herbicidal effect grade, K: Lolium multiflorum Lam.",Lolium multiflorum Lam.; [4],5 (Herbicidal ratio of 90% or more (almost completely withered))
same,"Effect on crop grade, e: wheat",wheat [2]; [4],0 (Herbicidal ratio of 5% or lower (almost no effect))
same,D (Leptochloa chinensis) herbicidal effect grade,Leptochloa chinensis,5 (Herbicidal ratio of 90% or more (almost completely withered))
same,"Herbicidal effect grade, N: Amaranthus retroflexus",Amaranthus retroflexus; [4],0 (Herbicidal ratio of 5% or lower (almost no effect))
same,A (Echinochloa oryzacola Vasing.) herbicidal effect grade,[3],5 (Herbicidal ratio of 90% or more (almost completely withered))
same,"L: Apera spica-venti, herbicidal effect grade",Apera spica-venti,5 (Herbicidal ratio of 90% or more (almost completely withered))
same,"b: directly sowed rice plant, effect on crop grade",rice plant,5 (Herbicidal ratio of 90% or more (almost completely withered))
same,"Effect on crop grade, b: directly sowed rice plant",rice; [4],5 (Herbicidal ratio of 90% or more (almost completely withered))
COCCON=C(CC1CC(O)=C(c2c(C)cc(-n3cc(Cl)cn3)cc2C)C1=O)C1CC1 (stereo not drawn) [9-020],E herbicidal effect grade,Cyperus difformis,5 (Herbicidal ratio of 90% or more (almost completely withered))
same,"e: wheat, effect on crop grade",wheat [1],2 (Herbicidal ratio of 20% or higher and lower than 40%)
same,"Effect on crop grade, g: rapeseed",rapeseed; [4],0 (Herbicidal ratio of 5% or lower (almost no effect))
same,"M: Abutilon theophrasti, herbicidal effect grade",Abutilon theophrasti,4 (Herbicidal ratio of 70% or higher and lower than 90%)
same,"Effect on crop grade, f: beet",beet,0 (Herbicidal ratio of 5% or lower (almost no effect))
same,"I: Avena fatua, herbicidal effect grade",Avena fatua,5 (Herbicidal ratio of 90% or more (almost completely withered))
same,C (Monochoria vaginalis) herbicidal effect grade,Monochoria vaginalis,1 (Herbicidal ratio of 5% or higher and lower than 20%)
same,"O: Chenopodium album, herbicidal effect grade",Chenopodium album,3 (Herbicidal ratio of 40% or higher and lower than 70%)
same,"P: Stellaria media, herbicidal effect grade",Stellaria media,3 (Herbicidal ratio of 40% or higher and lower than 70%)
same,"Herbicidal effect grade, K: Lolium multiflorum Lam.",Lolium multiflorum Lam.; [4],5 (Herbicidal ratio of 90% or more (almost completely withered))
same,"Effect on crop grade, e: wheat",wheat [2]; [4],0 (Herbicidal ratio of 5% or lower (almost no effect))
same,D (Leptochloa chinensis) herbicidal effect grade,Leptochloa chinensis,5 (Herbicidal ratio of 90% or more (almost completely withered))
same,"Herbicidal effect grade, N: Amaranthus retroflexus",Amaranthus retroflexus; [4],0 (Herbicidal ratio of 5% or lower (almost no effect))
same,A (Echinochloa oryzacola Vasing.) herbicidal effect grade,[3],5 (Herbicidal ratio of 90% or more (almost completely withered))
same,"L: Apera spica-venti, herbicidal effect grade",Apera spica-venti,4 (Herbicidal ratio of 70% or higher and lower than 90%)
same,"b: directly sowed rice plant, effect on crop grade",rice plant,5 (Herbicidal ratio of 90% or more (almost completely withered))
same,"Effect on crop grade, b: directly sowed rice plant",rice; [4],3 (Herbicidal ratio of 40% or higher and lower than 70%)
C=CCOC1=C(c2c(C)cc(C)cc2C)C(=O)C(CC(C)=NOC)C1 (stereo not drawn) [1-007],"herbicidal effect on E, grade 0-5",Cyperus difformis,0 (Herbicidal ratio of 5% or lower (almost no effect))
same,"e: wheat, effect on crop grade",wheat [1],0 (Herbicidal ratio of 5% or lower (almost no effect))
same,g (rapeseed) effect on crop grade,rapeseed; [4],0 (Herbicidal ratio of 5% or lower (almost no effect))
same,"M: Abutilon theophrasti, herbicidal effect grade",Abutilon theophrasti,0 (Herbicidal ratio of 5% or lower (almost no effect))
same,"I: Avena fatua, herbicidal effect grade",Avena fatua,3 (Herbicidal ratio of 40% or higher and lower than 70%)
same,"Herbicidal effect grade, C: Monochoria vaginalis",Monochoria vaginalis,0 (Herbicidal ratio of 5% or lower (almost no effect))
same,"O: Chenopodium album, herbicidal effect grade",Chenopodium album,0 (Herbicidal ratio of 5% or lower (almost no effect))
same,"P: Stellaria media, herbicidal effect grade",Stellaria media,0 (Herbicidal ratio of 5% or lower (almost no effect))
same,K (Lolium multiflorum Lam.) herbicidal effect grade,Lolium multiflorum Lam.; [4],2 (Herbicidal ratio of 20% or higher and lower than 40%)
same,e (wheat) effect on crop grade,wheat [2]; [4],0 (Herbicidal ratio of 5% or lower (almost no effect))
same,"herbicidal effect on D (Leptochloa chinensis), grade 0-5",Leptochloa chinensis,5 (Herbicidal ratio of 90% or more (almost completely withered))
same,N (Amaranthus retroflexus) herbicidal effect grade,Amaranthus retroflexus; [4],0 (Herbicidal ratio of 5% or lower (almost no effect))
same,"Herbicidal effect grade, A: Echinochloa oryzacola Vasing.",[3],0 (Herbicidal ratio of 5% or lower (almost no effect))
same,"L: Apera spica-venti, herbicidal effect grade",Apera spica-venti,1 (Herbicidal ratio of 5% or higher and lower than 20%)
same,"b: directly sowed rice plant, effect on crop grade",rice plant,0 (Herbicidal ratio of 5% or lower (almost no effect))
same,b (directly sowed rice plant) effect on crop grade,rice; [4],0 (Herbicidal ratio of 5% or lower (almost no effect))
CC(CC1CC(O)=C(c2c(C)cc(C)cc2C)C1=O)=NOCC#N (stereo not drawn) [1-102],"herbicidal effect on E, grade 0-5",Cyperus difformis,5 (Herbicidal ratio of 90% or more (almost completely withered))
same,"e: wheat, effect on crop (criteria 0-5)",wheat [1],4 (Herbicidal ratio of 70% or higher and lower than 90%)
same,"g: rapeseed, effect grade on crop",rapeseed; 320 g/ha,0 (Herbicidal ratio of 5% or lower (almost no effect))
same,"M: Abutilon theophrasti, herbicidal effect (criteria 0-5)",Abutilon theophrasti,0 (Herbicidal ratio of 5% or lower (almost no effect))
same,"f: beet, effect grade on crop",beet; 320 g/ha,0 (Herbicidal ratio of 5% or lower (almost no effect))
same,"I: Avena fatua, herbicidal effect (criteria 0-5)",Avena fatua,5 (Herbicidal ratio of 90% or more (almost completely withered))
same,"O: Chenopodium album, herbicidal effect (criteria 0-5)",Chenopodium album,3 (Herbicidal ratio of 40% or higher and lower than 70%)
same,"P: Stellaria media, herbicidal effect (criteria 0-5)",Stellaria media,0 (Herbicidal ratio of 5% or lower (almost no effect))
same,"K: Lolium multiflorum Lam., herbicidal effect grade",Lolium multiflorum Lam.; 320 g/ha,5 (Herbicidal ratio of 90% or more (almost completely withered))
same,"e: wheat, effect grade on crop",wheat [2]; 320 g/ha,0 (Herbicidal ratio of 5% or lower (almost no effect))
same,"herbicidal effect on D (Leptochloa chinensis), grade 0-5",Leptochloa chinensis,5 (Herbicidal ratio of 90% or more (almost completely withered))
same,"N: Amaranthus retroflexus, herbicidal effect grade",Amaranthus retroflexus; 320 g/ha,0 (Herbicidal ratio of 5% or lower (almost no effect))
same,"Herbicidal effect grade, A: Echinochloa oryzacola Vasing.",[3],5 (Herbicidal ratio of 90% or more (almost completely withered))
same,"L: Apera spica-venti, herbicidal effect (criteria 0-5)",Apera spica-venti,5 (Herbicidal ratio of 90% or more (almost completely withered))
same,"b: directly sowed rice plant, effect on crop (criteria 0-5)",rice plant,5 (Herbicidal ratio of 90% or more (almost completely withered))
same,"b: directly sowed rice plant, effect grade on crop",rice; 320 g/ha,5 (Herbicidal ratio of 90% or more (almost completely withered))
